Holding throughout (assay type): cell-based
Assay [1] has as its system Micrococcus luteus ATCC9341. The assay is described as follows: Paper disc assay, Micrococcus luteus (l). The procedure: (§1) (2) Antibacterial activities against other bacteria were determined with Micrococcus luteus ATCC9341 (1), Bacillus subtilis […] (s), Escherichia coli NIHJ (c), Xanthomonas campestris KB88 (X), Mucor racemosus IFO 4581 (Mu) and Candida albicans ATCC 64548 (Ca).
(§2) Bacillus subtilis ATCC6633 was incubated in Davis synthetic medium and then the seed broth was combined with the medium in the ratio of 1:99 to obtain a test plate. Micrococcus luteus ATCC9341, Escherichia coli NIHJ and Xanthomonas campestris KB88 were respectively incubated in Nutrient agar medium and inoculated at 0.2%, 0.5% and 1.0%. Mucor racemosus IFO 4581 and Candida albicans ATCC 64548 were respectively incubated in GY agar medium and then inoculated at 0.3% and 0.2%.
(§3) A paper disc (ADVANTEC, Φ:6 mm) was impregnated with a solution of test compound and dried under reduced pressure. The paper disc was put on the test plate and it was incubated for 24 hours at 37° C. After incubation, the inhibition zone diameter and clarity (A to E) were determined.

The next assay concerns Escherichia coli NIHJ. Nature of the assay: Paper disc assay, Escherichia coli (c). The method, then:
as §1, §2, §3

The subject of assay [2] is Mannhemia hemolytica KB345. The assay is described as follows: Paper disc assay, M. hemolytica KB345 (Tilmicosin-sensitivity strain). The following applies: for zone of inhibition at 1 mg/disc: 1 mg/6 mm disk; for Inhibition zone (mm): Table 4. The procedure:
(§4) (1) Antibacterial Activities Against Mannheimia and Pasteurella were Determined by the Following Steps:
(§5) 1) M. hemolytica KB345 (Tilmicosin-sensitivity strain) and M. hemolytica KB346 (Tilmicosin-low sensitivity strain) were provided. KB 345 strain stored at −80° C. was seeded to BHIB agar medium (10 mL) by using Microbank beads (Pro-Lab) and platinum nail. After statically incubating the KB 345 strain for 24 hours at 37° C., it was seeded to maintaining slant BHIB agar medium (7 mL) by using platinum loop, further statically incubated for 24 hours at 37° C. to obtain slant. One platinum loop of KB 345 strain stored at the slant was inoculated into a large test tube charged with BHIB liquid medium (10 mL) and then incubated for 24 hours at 37° C. with shaking.
(§6) 2) A paper disc (ADVANTEC, Φ:6 mm) was impregnated with a solution of test compound and dried under reduced pressure.
(§7) 3) To a melted BHIB agar medium was inoculated 1% of the broth obtained from step 1) above to prepare a test plate. After the medium set, the paper disc prepared in step 2) above was put on the plate and it was incubated at 37° C.
(§8) 4) After one day, the inhibition zone diameter and clarity (A to E) were determined.

Assay [3] deals with Xanthomonas campestris KB88. The assay is described as follows: Paper disc assay, Xanthomonas campestris (X). The procedure:
as §1, §2, §3

The subject of assay [4] is Bacillus subtilis ATCC6633. The assay is described as follows: Paper disc assay, Bacillus subtilis (S). The procedure:
as §1, §2, §3

Assay [5] relates to Mannheimia Haemolytica, 3 isolates. The assay is described as follows: Minimal inhibitory concentrations, cattle pathogen isolates. Conditions: for MIC: Mannheimia haemolytica. The procedure:
(§9) The antibacterial activity by the compounds of the present invention may be measured using a number of assays available in the art. […] Minimal inhibitory concentrations (MICs) were determined against the most prevalent pathogens in cattle (Mannheimia Haemolytica, 3 isolates) and swine (A. pleuropneumoniae, 6 isolates).The results are summarized in Table 7.

The subject of assay [6] is A. pleuropneumoniae, 6 isolates. The assay is described as follows: Minimal inhibitory concentrations, swine pathogen isolates. The procedure: as §9
In assay [7] the test system is Mannhemia hemolytica KB346. The assay is described as follows: Paper disc assay, M. hemolytica KB346 (Tilmicosin-low sensitivity strain). The following applies: Table 5. The method, then: as §4, §5, §6, §7, §8
For KB346 strain, the same procedures were repeated.

≈ marks a conversion by molar mass, not a printed value.

For orientation: zone of inhibition means the size of the clear area around the sample on an inoculated plate. Lower therefore signals little suppression of growth. The term MIC denotes the least concentration at which growth counts as inhibited.

Consider `CC[C@H]1OC(=O)C[C@@H](O)[C@H](C)[C@@H](O[C@@H]2O[C@H](C)[C@@H](O)C(N(C)C)C2O)[C@@H](CCN2CC(C)CC(C)C2)C[C@@H](C)C(=O)/C=C/C(C)=C/[C@@H]1CO[C@@H]1OC(C)[C@@H](O)[C@H](OC)C1OC` (stereo partly drawn) [Tilmicosin, reference compound], for which the “Inhibition zone (mm)” value in assay [1] (0.1 mg/6 mm disc) came to 12 mm; in assay [1] (1 mg/6 mm disc) it was 19 mm; in assay [1] (10 mg/6 mm disc), 27.5 mm; in the assay on Escherichia coli NIHJ (1 mg/6 mm disc), 13 mm; in the assay with Escherichia coli NIHJ (10 mg/6 mm disc), 20 mm; in assay [3] (0.1 mg/6 mm disc), 12 mm. In addition, the “Inhibition zone (mm)” value in assay [3] (1 mg/6 mm disc) is on record as 20 mm; in assay [3] (10 mg/6 mm disc), 30 mm; in assay [4] (0.1 mg/6 mm disc), 14 mm; in assay [4] (1 mg/6 mm disc), 11 mm; in assay [4] (10 mg/6 mm disc) it was 18 mm. Also, the zone of inhibition at 1 mg/disc in assay [2] (24 h, Table 2) came to 10.7 mm. The zone of inhibition at 3 mg/disc in assay [2] (24 h, Table 2, 3 mg/6 mm disk) was 13.5 mm.
As to `CC[C@H]1OC(=O)C[C@@H](O)[C@H](C)[C@@H](O[C@@H]2O[C@H](C)[C@@H](O)[C@H](N(C)C)[C@H]2O)[C@@H](CCn2cc(-c3ccsc3)nn2)C[C@@H](C)C(=O)/C=C/C(C)=C/[C@@H]1CO[C@@H]1O[C@H](C)[C@@H](O)[C@@H](OC)[C@H]1OC` [YT14, 20-(4-(thiophene-3-yl)-1H-1,2,3-triazol-1-yl)-20-deoxodesmycosin], the “Inhibition zone (mm)” value amounted to 13.5 mm in assay [1] (0.1 mg/6 mm disc); 20.5 mm in assay [1] (1 mg/6 mm disc); 26.5 mm in assay [1] (10 mg/6 mm disc); 7 mm in the assay on Escherichia coli NIHJ (10 mg/6 mm disc); 7 mm in assay [3] (0.1 mg/6 mm disc); 16 mm in assay [3] (1 mg/6 mm disc). The “Inhibition zone (mm)” value in assay [3] (10 mg/6 mm disc) came out at 22 mm; in assay [4] (0.1 mg/6 mm disc), 8 mm; in assay [4] (1 mg/6 mm disc), 11 mm; in assay [4] (10 mg/6 mm disc), 15 mm. The compound also gave a zone of inhibition at 1 mg/disc in assay [2] (24 h, Table 2) of 11 mm. For the same compound, the zone of inhibition at 3 mg/disc in assay [2] (24 h, Table 2, 3 mg/6 mm disk) came out at 14 mm. Moreover, the zone of inhibition at 10 mg/disc in assay [2] (24 h, Table 2, 10 mg/6 mm disk) is 16.5 mm. Besides, the zone of inhibition at 30 mg/disc in assay [2] (24 h, Table 2, 30 mg/6 mm disk) came to 19.5 mm. This compound had a zone of inhibition at 100 mg/disc in assay [2] (24 h, Table 2, 100 mg/6 mm disk) of 22 mm.
In the case of `CC[C@H]1OC(=O)C[C@@H](O)[C@H](C)[C@@H](O[C@@H]2O[C@H](C)C(O)C(N(C)C)C2O)[C@@H](CC=O)C[C@@H](C)C(=O)/C=C/C(C)=C/[C@@H]1Cn1cc(-c2ccc(-c3ccccc3)cc2)nn1` (stereo partly drawn) [YT104, 23-(4-biphenyl-1H-1,2,3-triazol-1-yl)-23-Deoxy-5-O-mycaminosyltylonolide], the MIC in assay [5] (M. haemolytica isolate 1) is 8 µg/mL (≈ 9.99 µM); in assay [5] (M. haemolytica isolate 2) it was 4 µg/mL (≈ 4.99 µM); in assay [5] (M. haemolytica isolate 3), 8 µg/mL (≈ 9.99 µM); in assay [6] (Actinobacillus pleuropneumoniae, pleuropneumoniae isolate 1) it was over 16 µg/mL. Further, the MICs in assay [6] (pleuropneumoniae isolate 2), in assay [6] (pleuropneumoniae isolate 3), in assay [6] (pleuropneumoniae isolate 4), in assay [6] (pleuropneumoniae isolate 5) and in assay [6] (pleuropneumoniae isolate 6) was over 16 µg/mL in each case.
Turning to `CC[C@H]1OC(=O)C[C@@H](O)[C@H](C)[C@@H](O[C@@H]2O[C@H](C)[C@@H](O)[C@H](N(C)C)[C@H]2O)[C@@H](CC=O)C[C@@H](C)C(=O)/C=C/C(C)=C/[C@@H]1CO` [YT106, 5-O-mycaminosyltylonolide], the “Inhibition zone (mm)” value in assay [2] (10 mg/6 mm disk) was found to be 8.5 mm; in assay [2] (30 mg/6 mm disk), 12.5 mm; in assay [2] (100 mg/6 mm disk) it was 15.0 mm; in assay [7] (10 mg/6 mm disk), 9.0 mm; in assay [7] (30 mg/6 mm disk), 13.0 mm; in assay [7] (100 mg/6 mm disk), 17.0 mm.
With `CCC1OC(=O)CC(O)C(C)C(OC2OC(C)C(O)C(N(C)C)C2O)C(CC=O)CC(C)C(=O)C=CC(C)=CC1CN=[N+]=[N-]` (stereo not drawn) [YT107, 23-azido-23-deoxo-5-O-mycaminosyltylonolide], the “Inhibition zone (mm)” value is listed as 12.0 mm in assay [2] (3 mg/6 mm disk); 16.0 mm in assay [2] (10 mg/6 mm disk); 18.0 mm in assay [2] (30 mg/6 mm disk); 21.5 mm in assay [2] (100 mg/6 mm disk); 10.5 mm in assay [7] (30 mg/6 mm disk); 15.0 mm in assay [7] (100 mg/6 mm disk).
Turning to `CC[C@H]1OC(=O)C[C@@H](O)[C@H](C)[C@@H](O[C@@H]2O[C@H](C)[C@@H](O)[C@H](N(C)C)[C@H]2O)[C@@H](CCn2cc(-c3ccccc3)nn2)C[C@@H](C)C(=O)/C=C/C(C)=C/[C@@H]1CO` [YT112, 20-(4-phenyl-1H-1,2,3-triazol-1-yl)-20-deoxo-5-O-mycaminosyltylonolide], the MICs was determined as 8 µg/mL in assay [5] (M. haemolytica isolate 1); 4 µg/mL in assay [5] (M. haemolytica isolate 2); 8 µg/mL in assay [5] (M. haemolytica isolate 3); 4 µg/mL in assay [6] (pleuropneumoniae isolate 1); 4 µg/mL in assay [6] (pleuropneumoniae isolate 2); 4 µg/mL in assay [6] (pleuropneumoniae isolate 3). Also, the MICs in assay [6] (pleuropneumoniae isolate 4) amounted to 8 µg/mL; in assay [6] (pleuropneumoniae isolate 5), 4 µg/mL; in assay [6] (pleuropneumoniae isolate 6), 8 µg/mL. Moreover, the “Inhibition zone (mm)” value in assay [2] (3 mg/6 mm disk) is 17.0 mm; in assay [2] (10 mg/6 mm disk), 20.0 mm; in assay [2] (30 mg/6 mm disk), 25.0 mm; in assay [2] (100 mg/6 mm disk) it was 29.0 mm; in assay [7] (100 mg/6 mm disk), 11.5 mm.
